Earlier results on two compounds are cited in patent US20210100738A1, “OXYGEN DELIVERY BEVERAGE” (RESPIROGEN, INC., priority 2018, published 2021).

For this data set the following is noted: oral co-administration of lipids, in mammals.

Turning to `CCCCCc1cc(O)c2c(c1)OC(C)(C)[C@@H]1CCC(C)=C[C@@H]21` [THC, Δ^9-tetrahydrocannabinol], the increase in bioavailability entry was “more than 2.5 fold”.
With `C=C(C)[C@@H]1CCC(C)=C[C@H]1c1c(O)cc(CCCCC)cc1O` [CBD, cannabidiol], the increase in bioavailability is recorded as approximately 3 fold.
